According to patent publication US9409884B2 (Rigel Pharmaceuticals, Inc., priority 2012, dated 2016):

Target: AMPK
Test: AMPK activation, enzyme-linked immunosorbent assay
Assay type: biochemical
Details: Table 8, compounds of Table 1
Outline: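 AMPK activation by test compounds was measured by enzyme-linked immunosorbent assay.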

| EC50 | SMILES |
| --- | --- |
| 0.1 to 0.5 µM | N#Cc1ccc(N2CCC(Oc3ccc(C(=O)NC4CCN(Cc5ccncc5)CC4)nc3)CC2)cc1 [Compound 1-1, 5-(1-(4-cyanophenyl)piperidin-4-yloxy)-N-(1-(pyridin-4-ylmethyl)piperidin-4-yl)picolinamide] |
| 5 to 10 µM | O=C(N[C@@H]1CCNC1)c1ccc(OC2CCN(c3ccc(C(F)(F)F)cc3)CC2)cn1 [Compound 1-24, (R)-N-(pyrrolidin-3-yl)-5-(1-(4-(trifluoromethyl)phenyl)piperidin-4-yloxy) picolinamide] |
| < 0.1 µM | O=C(NC1CCN(Cc2ccncc2)CC1)c1cncc(OC2CCN(c3ccc(C(F)(F)F)cc3)CC2)c1 [Compound 1-14, N-(1-(pyridin-4-ylmethyl)piperidin-4-yl)-5-(1-(4-(trifluoromethyl)phenyl)piperidin-4-yloxy)nicotinamide] |
| 0.1 to 0.5 µM | N#Cc1cccc(CN2CCC(NC(=O)c3cc4ccc(OC5CCN(c6ccc(C(F)(F)F)cc6)CC5)cc4s3)CC2)c1 [Compound 1-145, N-(1-(3-cyanobenzyl)piperidin-4-yl)-6-(1-(4-(trifluoromethyl)phenyl)piperidin-4-yloxy)benzo [b]thiophene-2-carboxamide] |

Same assay, conditions: Table 12, compounds of Table 5

| EC50 | SMILES |
| --- | --- |
| < 1 µM | O=C(NC1CCN(Cc2ccccc2)CC1)c1ccc(OC2CCN(Cc3ccc4c(c3)OCCO4)CC2)c(Cl)c1 [Compound 5-15] |
| 1 to 10 µM | CC(C)(C)OC(=O)N1CCC(Oc2ccc(C(=O)NC3CCN(Cc4ccccc4)CC3)cc2Cl)CC1 [Compound 5-90, tert-butyl 4-(4-(1-benzylpiperidin-4-ylcarbamoyl)-2-chlorophenoxy) piperidine-1-carboxylate] |
| < 1 µM | O=C(NC1CCN(Cc2ccc(F)cc2)CC1)c1ccc(OC2CCN(Cc3ccc(Cl)cc3)CC2)c(Cl)c1 [Compound 5-66, 3-chloro-4-(1-(4-chlorobenzyl)piperidin-4-yloxy)-N-(1-(4-fluorobenzyl)piperidin-4-yl)benzamide] |

Same assay, conditions: Table 13, compounds of Table 6

| EC50 | SMILES |
| --- | --- |
| < 0.1 µM | CS(=O)(=O)c1ccc(CN2CCN(C(=O)c3ccc4oc(C(=O)NC5CCN(Cc6ccc(C#N)cc6)CC5)cc4c3)CC2)cc1 [Compound 6-123, N-(1-(4-cyanobenzyl)piperidin-4-yl)-5-(4-(4-(methylsulfonyl)benzyl)piperazine-1-carbonyl) benzofuran-2-carboxamide] |
| 0.1 to 1 µM | CN(C)C(=O)c1ccc(N2CCN(C(=O)c3ccc4oc(C(=O)NC5CCN(Cc6ccc(C#N)cc6)CC5)cc4c3)CC2)cc1 [Compound 6-110, N-(1-(4-cyanobenzyl)piperidin-4-yl)-5-(4-(4-(dimethylcarbamoyl)phenyl)piperazine-1-carbonyl) benzofuran-2-carboxamide] |
| < 0.1 µM | N#Cc1ccc(CN2CCC(NC(=O)c3cc4cc(C(=O)N5CCN(c6ccc(Cl)cc6Cl)CC5)ccc4o3)CC2)cc1 [Compound 6-118, N-(1-(4-cyanobenzyl)piperidin-4-yl)-5-(4-(2,4-dichlorophenyl)piperazine-1-carbonyl)benzofuran-2-carboxamide] |
| < 0.1 µM | COc1ccc(CN2CCC(NC(=O)c3cc4cc(C(=O)N5CCN(Cc6ccc(S(=O)(=O)C(F)(F)F)cc6)CC5)ccc4o3)CC2)cc1F [Compound 6-134, N-(1-(3-fluoro-4-methoxybenzyl)piperidin-4-yl)-5-(4-(4-(trifluoromethylsulfonyl)benzyl)piperazine-1-carbonyl)benzofuran-2-carboxamide] |
| < 0.1 µM | N#Cc1ccc(CN2CCC(NC(=O)c3cc4cc(C(=O)N5CCN(Cc6ccc(S(=O)(=O)C7CC7)cc6)CC5)ccc4o3)CC2)cc1 [Compound 6-104, N-(1-(4-cyanobenzyl)piperidin-4-yl)-5-(4-(4-(cyclopropylsulfonyl)benzyI)piperazine-1-carbonyl) benzofuran-2-carboxamide] |

Same assay, conditions: Table 14, compounds of Table 7

| EC50 | SMILES |
| --- | --- |
| < 1 µM | COc1ccc(CN2CCC(NC(=O)c3ccc(C(=O)N4CCC(C(=O)c5ccc(OC)cc5)CC4)nc3)[C@@H](F)C2)cc1 (stereo partly drawn) [Compound 7-21, N-((3,4-trans)-3-fluoro-1-(4-methoxybenzyl)piperidin-4-yl)-6-(4-(4-methoxybenzoyl)piperidine-1-carbonyl)nicotinamide] |
